#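 The compound was tested at five concentrations on cells cultured in 96-well plates, with a 48-hour exposure period. At the GI50, growth is halved. TGI is the concentration that stops growth completely.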
# Tests used:
# Assay in all cases: inhibition of tumour cell growth, NCI panel, 48 h
# 786-0 renal = tested on: 786-0 renal
# A498 renal = tested on: A498 renal
# A549 NSCLC = tested on: A549 NSCLC
# ACHN renal = tested on: ACHN renal
# BT-549 breast = tested on: BT-549 breast
# CAKI-1 renal = tested on: CAKI-1 renal
# CCRF-CEM leukemia = tested on: CCRF-CEM leukemia
# COLO 205 colon = tested on: COLO 205 colon
# DU-145 prostate = tested on: DU-145 prostate
# EKVX NSCLC = tested on: EKVX NSCLC
# HCC-2998 colon = tested on: HCC-2998 colon
# HCT-116 colon = tested on: HCT-116 colon
# HCT-15 colon = tested on: HCT-15 colon
# HL-60(TB) leukemia = tested on: HL-60(TB) leukemia
# HOP-62 NSCLC = tested on: HOP-62 NSCLC
# HOP-92 NSCLC = tested on: HOP-92 NSCLC
# HS 578T breast = tested on: HS 578T breast
# HT29 colon = tested on: HT29 colon
# IGROV1 ovarian = tested on: IGROV1 ovarian
# K-562 leukemia = tested on: K-562 leukemia
# KM12 colon = tested on: KM12 colon
# LOX IMVI melanoma = tested on: LOX IMVI melanoma
# M14 melanoma = tested on: M14 melanoma
# MALME-3M melanoma = tested on: MALME-3M melanoma
# MCF7 breast = tested on: MCF7 breast
# MDA-MB-231 breast = tested on: MDA-MB-231 breast
# MDA-MB-435 = tested on: MDA-MB-435
# MOLT-4 leukemia = tested on: MOLT-4 leukemia
# NCI-H226 lung = tested on: NCI-H226 lung
# NCI-H23 lung = tested on: NCI-H23 lung
# NCI-H460 lung = tested on: NCI-H460 lung
# NCI-H522 lung = tested on: NCI-H522 lung
# NCI/ADR-RES ovarian = tested on: NCI/ADR-RES ovarian
# OVCAR-3 ovarian = tested on: OVCAR-3 ovarian
# OVCAR-4 ovarian = tested on: OVCAR-4 ovarian
# OVCAR-5 ovarian = tested on: OVCAR-5 ovarian
# OVCAR-8 ovarian = tested on: OVCAR-8 ovarian
# PC-3 prostate = tested on: PC-3 prostate
# RPMI-8226 leukemia = tested on: RPMI-8226 leukemia
# RXF 393 renal = tested on: RXF 393 renal
# SF-268 CNS = tested on: SF-268 CNS
# SF-295 CNS = tested on: SF-295 CNS
# SF-539 CNS = tested on: SF-539 CNS
# SK-MEL-2 melanoma = tested on: SK-MEL-2 melanoma
# SK-MEL-28 melanoma = tested on: SK-MEL-28 melanoma
# SK-MEL-5 melanoma = tested on: SK-MEL-5 melanoma
# SK-OV-3 ovarian = tested on: SK-OV-3 ovarian
# SN12C renal = tested on: SN12C renal
# SNB-19 CNS = tested on: SNB-19 CNS
# SNB-75 CNS = tested on: SNB-75 CNS
# SR leukemia = tested on: SR leukemia
# SW-620 colon = tested on: SW-620 colon
# T-47D breast = tested on: T-47D breast
# TK-10 renal = tested on: TK-10 renal
# U251 CNS = tested on: U251 CNS
# UACC-257 melanoma = tested on: UACC-257 melanoma
# UACC-62 melanoma = tested on: UACC-62 melanoma
# UO-31 renal = tested on: UO-31 renal
compound,measurement,setting,value
CC(=O)OCC(=O)O[C@@H]1C[C@]2(C(C)C)O[C@@]1(C)[C@@H]1CC[C@@H](C)[C@H]1[C@@H]2OC(=O)/C=C/c1ccccc1,GI50,786-0 renal,0.931 µM
same,TGI,786-0 renal,18.9 µM
same,GI50,A498 renal,< 0.0399 µM
same,TGI,A498 renal,0.472 µM
same,GI50,A549 NSCLC,18.5 µM
same,TGI,A549 NSCLC,> 100 µM
same,GI50,ACHN renal,0.0316 µM
same,TGI,ACHN renal,12.5 µM
same,GI50,BT-549 breast,0.0987 µM
same,TGI,BT-549 breast,7 µM
same,GI50,CAKI-1 renal,0.0244 µM
same,TGI,CAKI-1 renal,0.125 µM
same,GI50,CCRF-CEM leukemia,21.3 µM
same,TGI,CCRF-CEM leukemia,> 100 µM
same,GI50,COLO 205 colon,24.2 µM
same,TGI,COLO 205 colon,84.6 µM
same,GI50,DU-145 prostate,18.4 µM
same,TGI,DU-145 prostate,40.6 µM
same,GI50,EKVX NSCLC,13.8 µM
same,TGI,EKVX NSCLC,59.1 µM
same,GI50,HCC-2998 colon,20 µM
same,TGI,HCC-2998 colon,75.3 µM
same,GI50,HCT-116 colon,16.1 µM
same,TGI,HCT-116 colon,> 100 µM
same,GI50,HCT-15 colon,17.8 µM
same,TGI,HCT-15 colon,> 100 µM
same,GI50,HL-60(TB) leukemia,15 µM
same,TGI,HL-60(TB) leukemia,62 µM
same,GI50,HOP-62 NSCLC,17.3 µM
same,TGI,HOP-62 NSCLC,45.2 µM
same,GI50,HOP-92 NSCLC,8.81 µM
same,TGI,HOP-92 NSCLC,22.9 µM
same,GI50,HS 578T breast,< 0.0116 µM
same,TGI,HS 578T breast,0.0363 µM
same,GI50,HT29 colon,23.6 µM
same,TGI,HT29 colon,> 100 µM
same,GI50,IGROV1 ovarian,42.5 µM
same,TGI,IGROV1 ovarian,> 100 µM
same,GI50,K-562 leukemia,17.2 µM
same,TGI,K-562 leukemia,> 100 µM
same,GI50,KM12 colon,26.7 µM
same,TGI,KM12 colon,> 100 µM
same,GI50,LOX IMVI melanoma,15.5 µM
same,TGI,LOX IMVI melanoma,32.7 µM
same,GI50,M14 melanoma,26.3 µM
same,TGI,M14 melanoma,> 100 µM
same,GI50,MALME-3M melanoma,20.7 µM
same,TGI,MALME-3M melanoma,88.8 µM
same,GI50,MCF7 breast,22.6 µM
same,TGI,MCF7 breast,> 100 µM
same,GI50,MDA-MB-231 breast,14 µM
same,TGI,MDA-MB-231 breast,33.4 µM
same,GI50,MDA-MB-435,22 µM
same,TGI,MDA-MB-435,59.7 µM
same,GI50,MOLT-4 leukemia,20.3 µM
same,TGI,MOLT-4 leukemia,> 100 µM
same,GI50,NCI-H226 lung,10.6 µM
same,TGI,NCI-H226 lung,37.1 µM
same,GI50,NCI-H23 lung,23.7 µM
same,TGI,NCI-H23 lung,99.1 µM
same,GI50,NCI-H460 lung,21.4 µM
same,TGI,NCI-H460 lung,60.1 µM
same,GI50,NCI-H522 lung,17.9 µM
same,TGI,NCI-H522 lung,47.8 µM
same,GI50,NCI/ADR-RES ovarian,0.143 µM
same,TGI,NCI/ADR-RES ovarian,27.5 µM
same,GI50,OVCAR-3 ovarian,32.8 µM
same,TGI,OVCAR-3 ovarian,> 100 µM
same,GI50,OVCAR-4 ovarian,22.7 µM
same,TGI,OVCAR-4 ovarian,> 100 µM
same,GI50,OVCAR-5 ovarian,15.5 µM
same,TGI,OVCAR-5 ovarian,33.6 µM
same,GI50,OVCAR-8 ovarian,0.0747 µM
same,TGI,OVCAR-8 ovarian,> 56.3 µM
same,GI50,PC-3 prostate,7.88 µM
same,TGI,PC-3 prostate,> 100 µM
same,GI50,RPMI-8226 leukemia,18.8 µM
same,TGI,RPMI-8226 leukemia,> 100 µM
same,GI50,RXF 393 renal,0.211 µM
same,TGI,RXF 393 renal,2.01 µM
same,GI50,SF-268 CNS,2.65 µM
same,TGI,SF-268 CNS,62.2 µM
same,GI50,SF-295 CNS,17 µM
same,TGI,SF-295 CNS,43.9 µM
same,GI50,SF-539 CNS,28.2 µM
same,TGI,SF-539 CNS,> 100 µM
same,GI50,SK-MEL-2 melanoma,17.3 µM
same,TGI,SK-MEL-2 melanoma,39.1 µM
same,GI50,SK-MEL-28 melanoma,22.3 µM
same,TGI,SK-MEL-28 melanoma,83.4 µM
same,GI50,SK-MEL-5 melanoma,15.5 µM
same,TGI,SK-MEL-5 melanoma,31.5 µM
same,GI50,SK-OV-3 ovarian,24.5 µM
same,TGI,SK-OV-3 ovarian,> 97.2 µM
same,GI50,SN12C renal,1.88 µM
same,TGI,SN12C renal,24.3 µM
same,GI50,SNB-19 CNS,30.2 µM
same,TGI,SNB-19 CNS,> 100 µM
same,GI50,SNB-75 CNS,13.2 µM
same,TGI,SNB-75 CNS,58.4 µM
same,GI50,SR leukemia,12.2 µM
same,TGI,SR leukemia,> 95.9 µM
same,GI50,SW-620 colon,31 µM
same,TGI,SW-620 colon,> 100 µM
same,GI50,T-47D breast,8.81 µM
same,TGI,T-47D breast,> 97.2 µM
same,GI50,TK-10 renal,15.5 µM
same,TGI,TK-10 renal,39.7 µM
same,GI50,U251 CNS,16.7 µM
same,TGI,U251 CNS,50.3 µM
same,GI50,UACC-257 melanoma,23.6 µM
same,TGI,UACC-257 melanoma,87.4 µM
same,GI50,UACC-62 melanoma,14.1 µM
same,TGI,UACC-62 melanoma,38.3 µM
same,GI50,UO-31 renal,0.0336 µM
same,TGI,UO-31 renal,0.242 µM
